Data taken from publication PMC8851638 (ACS Omega, 2022).
≈ marks a conversion by molar mass, not a printed value. Where “and” joins values, the source holds several entries; their conditions need not be identical. Equal values may be shown once.

Tests used:
S. aureus (MDR00231) [1] = test: MIC and MBC by broth microdilution; format: cell-based, Staphylococcus aureus
A. baumannii (MDR00521) = test: MIC and MBC by broth microdilution; format: cell-based
[2] = In vitro cytotoxicity on normal cell line; format: cell-based, green monkey; settings: green monkey, Vero kidney cells
[3] = system: Vero: green monkey kidney; test: In vitro cytotoxicity on normal cell line; format: cell-based
E. coli (MDR00501) [4] = test: MIC and MBC by broth microdilution; format: cell-based
B. subtilis [5] = test: Single-step resistance selection; format: cell-based; settings: 4 × MIC, 48 h
S. epidermidis [6] = test: Single-step resistance selection; format: cell-based, Staphylococcus epidermidis; settings: 4 × MIC, 48 h
C. albicans100 [7] = test: Single-step resistance selection; format: cell-based, Candida albicans; settings: 4 × MIC, 48 h
C. albicans200 [8] = test: Single-step resistance selection; format: cell-based, Candida albicans; settings: 4 × MIC, 48 h
C. albicans100 [9] = test: Checkerboard combination assay with Ketoconazole; format: cell-based, Candida albicans
[10] = system: C. albicans100 (MDR00100); test: Agar well-diffusion antimicrobial sensitivity assay; format: cell-based, Candida albicans; settings: Candida albicans, read-out: Inhibition Zone (IZ)
S. epidermidis [11] = test: Checkerboard combination assay with Ciprofloxacin; format: cell-based, Staphylococcus epidermidis
[12] = In vitro cytotoxicity on normal cell line; format: cell-based, rat; settings: rat, H9C2 heart/myocardium cells
[13] = system: H9C2: rat heart/myocardium; test: In vitro cytotoxicity on normal cell line; format: cell-based
E. coli DNA gyrase = E. coli DNA gyrase (Escherichia coli, UniProt P0AES4+P0AES6); test: DNA gyrase inhibition; format: biochemical
Chain of E. coli DNA gyrase (P0AES4 whole entry, one chain of several): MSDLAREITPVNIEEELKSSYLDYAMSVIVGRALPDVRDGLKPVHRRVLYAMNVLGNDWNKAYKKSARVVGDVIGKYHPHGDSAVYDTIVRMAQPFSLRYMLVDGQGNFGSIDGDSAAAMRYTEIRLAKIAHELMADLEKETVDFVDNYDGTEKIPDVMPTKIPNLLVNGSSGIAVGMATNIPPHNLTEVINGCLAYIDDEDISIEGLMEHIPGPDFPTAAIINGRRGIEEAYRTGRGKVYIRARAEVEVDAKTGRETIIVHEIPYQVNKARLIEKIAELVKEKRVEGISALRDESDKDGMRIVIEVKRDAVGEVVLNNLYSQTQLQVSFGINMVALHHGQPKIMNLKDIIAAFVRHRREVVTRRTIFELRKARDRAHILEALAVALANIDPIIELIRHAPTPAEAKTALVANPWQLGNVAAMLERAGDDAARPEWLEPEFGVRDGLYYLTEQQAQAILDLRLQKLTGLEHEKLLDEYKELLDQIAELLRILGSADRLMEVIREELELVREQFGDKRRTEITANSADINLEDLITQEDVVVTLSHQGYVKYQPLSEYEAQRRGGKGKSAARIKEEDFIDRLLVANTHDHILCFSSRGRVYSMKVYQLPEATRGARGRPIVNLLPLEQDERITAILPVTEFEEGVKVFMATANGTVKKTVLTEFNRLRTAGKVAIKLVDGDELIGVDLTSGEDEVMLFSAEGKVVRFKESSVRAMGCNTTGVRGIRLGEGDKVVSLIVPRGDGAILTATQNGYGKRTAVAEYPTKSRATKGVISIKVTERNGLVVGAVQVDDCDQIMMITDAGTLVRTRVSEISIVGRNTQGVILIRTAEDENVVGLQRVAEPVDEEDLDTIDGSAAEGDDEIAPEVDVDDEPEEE

B. subtilis [14] = test: Checkerboard combination assay with Ciprofloxacin; format: cell-based
A. baumannii [15] = test: Checkerboard combination assay with Ciprofloxacin; format: cell-based
B. subtilis (MDR00423) = test: MIC and MBC by broth microdilution; format: cell-based
C. albicans200 [16] = test: Checkerboard combination assay with Ketoconazole; format: cell-based, Candida albicans
E. coli [17] = test: Single-step resistance selection; format: cell-based; settings: 4 × MIC, 48 h
S. aureus [18] = test: Checkerboard combination assay with Ciprofloxacin; format: cell-based, Staphylococcus aureus
[19] = system: C. albicans200 (MDR00200); test: Agar well-diffusion antimicrobial sensitivity assay; format: cell-based, Candida albicans; settings: Candida albicans, read-out: Inhibition Zone (IZ)
S. aureus biofilm = test: Staphylococcus biofilm mass reduction; format: cell-based; settings: at their MIC
[20] = system: C. albicans200 (MDR00200); test: MIC and MFC by broth microdilution; format: cell-based, Candida albicans
[21] = In vitro cytotoxicity on normal cell line; format: cell-based, mouse; settings: mouse, BNL normal liver cells
[22] = system: BNL: mouse normal liver cells; test: In vitro cytotoxicity on normal cell line; format: cell-based
S. epidermidis biofilm = test: Staphylococcus biofilm mass reduction; format: cell-based; settings: at their MIC
S. aureus (MDR00231) [23] = test: Agar well-diffusion antimicrobial sensitivity assay; format: cell-based, Staphylococcus aureus; settings: Staphylococcus aureus, read-out: Inhibition Zone (IZ)
[24] = system: S. epidermidis (MDR00223); test: MIC and MBC by broth microdilution; format: cell-based, Staphylococcus epidermidis
A. baumannii [25] = test: Single-step resistance selection; format: cell-based; settings: 4 × MIC, 48 h
K. pneumoniae [26] = test: Single-step resistance selection; format: cell-based; settings: 4 × MIC, 48 h
S. aureus [27] = test: Single-step resistance selection; format: cell-based, Staphylococcus aureus; settings: 4 × MIC, 48 h
[28] = system: C. albicans100 (MDR00100); test: MIC and MFC by broth microdilution; format: cell-based, Candida albicans
K. pneumoniae (MDR00244) = test: MIC and MBC by broth microdilution; format: cell-based; settings: ratio in parentheses
K. pneumoniae [29] = test: Checkerboard combination assay with Ciprofloxacin; format: cell-based
E. coli (MDR00501) [30] = test: Agar well-diffusion antimicrobial sensitivity assay; format: cell-based; settings: Escherichia coli, read-out: Inhibition Zone (IZ)
[31] = system: clinical pathogenic isolates; test: Single-step resistance selection, whole panel; format: cell-based; settings: 4 × MIC
E. coli [32] = test: Checkerboard combination assay with Ciprofloxacin; format: cell-based
RBCs = test: Hemolytic assay; format: cell-based; settings: human RBCs; compounds 1.0 mg/mL; Triton X-100 0.1% v/v; 37 °C, 35 min
[33] = system: S. epidermidis (MDR00223); test: Agar well-diffusion antimicrobial sensitivity assay; format: cell-based, Staphylococcus epidermidis; settings: Staphylococcus epidermidis, read-out: Inhibition Zone (IZ)
[34] = target: T1, dihydrofolate reductase (DHFR) (Homo sapiens, UniProt P00374); test: DHFR inhibition; format: biochemical
T1 sequence (P00374 1-187): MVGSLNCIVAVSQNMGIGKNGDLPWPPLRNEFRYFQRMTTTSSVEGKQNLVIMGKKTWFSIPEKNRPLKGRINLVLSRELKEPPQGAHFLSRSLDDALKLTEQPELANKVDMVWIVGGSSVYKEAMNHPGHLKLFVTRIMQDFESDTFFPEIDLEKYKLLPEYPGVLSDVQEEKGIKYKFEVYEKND

N#CC(=Cc1ccccc1O)C1=NC(=O)C(=Cc2cn(-c3ccccc3)nc2-c2ccccc2)S1 [Compound 5a, 3-(2-Hydroxyphenyl)-2-(5-((1,3-diphenyl-1H-pyrazol-4-yl)methylene)-4-oxo-4,5-dihydro-thiazol-2-yl)acrylonitrile]
MBC/MIC (S. aureus (MDR00231) [1]; S. aureus, ratio in parentheses): 1
MIC (S. aureus (MDR00231) [1]; Staphylococcus aureus, read-out: MIC (mean ± SEM), S. aureus, broth microdilution): 0.48 ± 0.1 µg/mL (≈ 1.01 µM)
MIC (mean ± SEM) (A. baumannii (MDR00521); broth microdilution): 0.48 ± 0.5 µg/mL (≈ 1.01 µM)
MBC/MIC (A. baumannii (MDR00521); ratio in parentheses): 0.5
IC50 at 72 h [2]: 80.2 ± 1.79 µM
Selectivity index against DHFR ([3]; IC50 of Vero / IC50 of DHFR): 72.28
Selectivity index against DNA gyrase ([3]; IC50 of Vero / IC50 of DNA gyrase): 3.62
MIC (mean ± SEM) (E. coli (MDR00501) [4]; E. coli, broth microdilution): 0.46 ± 0.3 µg/mL (≈ 0.969 µM)
MBC/MIC (E. coli (MDR00501) [4]; E. coli, ratio in parentheses): 1
MIC (E. coli (MDR00501) [4]; Escherichia coli, read-out: MIC (mean ± SEM), E. coli, broth microdilution): 0.46 µg/mL (≈ 0.969 µM)
Single-step resistance frequency (mutation frequency) (B. subtilis [5]): 2.93 × 10^–7
Single-step resistance frequency (mutation frequency) (S. epidermidis [6]): 2.71 × 10^–8
Single-step resistance frequency (mutation frequency) (C. albicans100 [7]): 2.10 × 10^–8
Single-step resistance frequency (mutation frequency) (C. albicans200 [8]): 4.40 × 10^–7
combination effect (C. albicans100 [9]): S (S: synergism)
fractional inhibitory concentration index (FICI) (C. albicans100 [9]): 0.25
zone of inhibition at 100000 µg/mL [10]: 28 ± 0.4 mm
combination effect (S. epidermidis [11]): S (S: synergism)
fractional inhibitory concentration index (FICI) (S. epidermidis [11]): 0.5
IC50 at 72 h [12]: 99.2 ± 2.29 µM
Selectivity index against DHFR ([13]; IC50 of H9C2 / IC50 of DHFR): 89.37
Selectivity index against DNA gyrase ([13]; IC50 of H9C2 / IC50 of DNA gyrase): 4.48
IC50 (E. coli DNA gyrase): 22.1 ± 0.3 µM
combination effect (B. subtilis [14]): S (S: synergism)
fractional inhibitory concentration index (FICI) (B. subtilis [14]): 0.25
combination effect (A. baumannii [15]): S (S: synergism)
fractional inhibitory concentration index (FICI) (A. baumannii [15]): 0.5
MBC/MIC (B. subtilis (MDR00423); B. subtilis, ratio in parentheses): 1
MIC (B. subtilis (MDR00423); Bacillus subtilis, read-out: MIC (mean ± SEM), B. subtilis, broth microdilution): 0.49 ± 0.2 µg/mL (≈ 1.03 µM)
combination effect (C. albicans200 [16]): S (S: synergism)
fractional inhibitory concentration index (FICI) (C. albicans200 [16]): 0.5
Single-step resistance frequency (mutation frequency) (E. coli [17]): 2.21 × 10^–7
combination effect (S. aureus [18]): S (S: synergism)
fractional inhibitory concentration index (FICI) (S. aureus [18]): 0.5
zone of inhibition at 100000 µg/mL [19]: 30 ± 0.6 mm
reduction of biofilm formation (S. aureus biofilm): 89.1%
MIC (mean ± SEM) ([20]; C. albicans200, broth microdilution): 0.24 ± 0.4 µg/mL (≈ 0.506 µM)
MFC/MIC ([20]; C. albicans200, ratio in parentheses): 1
MIC ([20]; Candida albicans, read-out: MIC (mean ± SEM), C. albicans200, broth microdilution): 0.24 µg/mL (≈ 0.506 µM)
IC50 at 72 h [21]: 103 ± 1.44 µM
Selectivity index against DHFR ([22]; IC50 of BNL / IC50 of DHFR): 93.23
Selectivity index against DNA gyrase ([22]; IC50 of BNL / IC50 of DNA gyrase): 4.67
reduction of biofilm formation (S. epidermidis biofilm): 79.5%
zone of inhibition at 100000 µg/mL (S. aureus (MDR00231) [23]): 29 ± 0.22 mm
MBC/MIC ([24]; S. epidermidis, ratio in parentheses): 0.5
MIC ([24]; Staphylococcus epidermidis, read-out: MIC (mean ± SEM), S. epidermidis, broth microdilution): 0.49 ± 0.4 µg/mL (≈ 1.03 µM)
Single-step resistance frequency (mutation frequency) (A. baumannii [25]): 1.80 × 10^–8
Single-step resistance frequency (mutation frequency) (K. pneumoniae [26]): 1.90 × 10^–8
Single-step resistance frequency (mutation frequency) (S. aureus [27]): 3.22 × 10^–7
MIC (mean ± SEM) ([28]; C. albicans100, broth microdilution): 0.43 ± 0.5 µg/mL (≈ 0.906 µM)
MFC/MIC ([28]; C. albicans100, ratio in parentheses): 0.5
MIC ([28]; Candida albicans, read-out: MIC (mean ± SEM), C. albicans100, broth microdilution): 0.43 µg/mL (≈ 0.906 µM)
MBC/MIC (K. pneumoniae (MDR00244)): 1
combination effect (K. pneumoniae [29]): S (S: synergism)
fractional inhibitory concentration index (FICI) (K. pneumoniae [29]): 0.25
zone of inhibition at 100000 µg/mL (E. coli (MDR00501) [30]): 28 ± 0.14 mm
mutation frequency, range over panel [31]: 2.21 × 10^–7 to 2.71 × 10^–8
combination effect (E. coli [32]): S (S: synergism)
fractional inhibitory concentration index (FICI) (E. coli [32]): 0.5
%lysis of RBCs (RBCs): 9.67% and 9.67 ± 0.31%
zone of inhibition at 100000 µg/mL [33]: 27 ± 0.24 mm
IC50 [34]: 1.11 ± 0.15 µM
